Results from patent US20190119284A1, “ErbB Inhibitors and Uses Thereof” (The Regents of the University of California, priority 2016, published 2019).

Assay: Mouse Liver Microsome stability assay
Type: in vitro ADME
Details: mouse liver microsomes

| SMILES | WuXi Microsomal stability (Mouse Extraction Ratio) |
| --- | --- |
| FC(F)Oc1ccc(-c2ccccc2)cc1Nc1ncnc2[nH]nc(-c3cc[nH]n3)c12 [compound 8179] | 0.6 |
| COc1ccc(-c2cnccn2)cc1Nc1ncnc2[nH]nc(-c3cc[nH]n3)c12 [compound 8184] | 0.9 |
| COc1ccc(-c2ncccn2)cc1Nc1ncnc2[nH]nc(-c3cc[nH]n3)c12 [compound 8185] | 0.8 |
| COc1ccc(-c2ccccc2)cc1Nc1ncnc2[nH]nc(-c3n[nH]cc3C)c12 [compound 8186] | 0.7 |
